# Experimental data from article PMC9007951, “Systematically evaluating DOTATATE and FDG as PET immuno-imaging tracers of cardiovascular inflammation” (Scientific Reports, 2022).
# Where two headings read alike, the source gives them in different places.
# Tests used:
# [1] = tested on: C57Bl/6 mice subjected to myocardial infarction; test: In vivo PET/CT of cardiac inflammation in infarcted mice; settings: tracer circulated 60 min, median
# Experimental: (§1) Myocardial infarction in mice was induced by permanent ligation of the left anterior descending (LAD) coronary artery of female C57Bl/6 mice (N = 18). Briefly, animals were anesthetized with xylazine (10 mg/kg) and ketamine (100 mg/kg) and intubated using an endotracheal intubation kit from Braintree Scientific (Braintree, MA). Left-sided thoracotomy and pericardial incision were performed. A 7-0 Silk suture was used to occlude the LAD. Incisions were closed with a 5-0 Silk suture. Infarcted animals were treated with 0.1 mg/kg of buprenorphine every 12 h and used 3 days after the surgery.
# (§2) For the PET/CT experiments, mice were fasted for 12 h before radiotracer injection and anesthetized with xylazine (10 mg/kg) and ketamine (100 mg/kg) through intraperitoneal injection prior to radiotracer administration. Subsequently they were injected via the lateral tail vein with approximately 22.2 MBq of [^18F]F-FDG or 5.55 MBq of [^64Cu]Cu-DOTATATE. Tracers were allowed to circulate for 60 min. Immediately before imaging, mice were placed under 1% isoflurane (BaxterHealthcare, Deerfield, IL), and subsequently imaged on a high resolution (700 µm) Mediso nanoScan PET/CT scanner (Mediso, Budapest, Hungary). CT scan was acquired at 50 kVp and 300 ms exposure per projection. eXIA160 (Binitio, Ontario, Canada) was used as a contrast agent to improve imaging of the vasculature by intravenous administration of 100 μl per mouse 5 min prior to CT acquisition. PET acquisition time was 40 min. Reconstruction was performed using TeraTomo 3D reconstruction engine, for 8 iterations and 6 subsets per iteration for both tracers. The voxel size was isotropic at 0.3 mm. Immediately after the PET/CT scan, animals were euthanized for ex vivo assays.
# (§3) Using OsiriX v5.6 software (OsiriX Foundation, Geneva, Switzerland), regions of interest (ROIs) were drawn to determine organ radioactivity concentration. In mice, for healthy and infarcted myocardium, ROIs were traced manually in the apex of the heart in the axial view. For remote myocardium, analysis was performed in myocardium 180° from the infarcted zone. In the mice aorta, sequential ROIs were drawn in the ascending aorta based on consecutive tomographic (CT) slices beginning from the root up to the brachiocephalic branch, merging point with the aortic arch. Voxel counts were converted to maximum standardized uptake values (SUVmax). In rabbits, PET images were fused with time-of-flight bright blood MRI angiography and ROIs were manually drawn on the infrarenal abdominal aorta in TOF images. The slice-by-slice maximum standard uptake values (SUVmax) were averaged across the whole aorta. […]
# [2] = Organ biodistribution of [^68Ga]Ga-DOTATATE by ex vivo gamma counting; type: in vivo, New Zealand White rabbits; settings: male, New Zealand White, rabbit, 190 MBq, total radioactivity, 200 min after tracer injection, median (IQR)
# Experimental: (§4) Adopting a translational approach, the rabbit studies were performed with the [^68Ga]Ga-labeled tracer, which is already being used in the clinic. [^68Ga]Ga-DOTATATE was purchased from Advanced Accelerator Applications (AAA, Millburn, NJ, USA). To determine its pharmacokinetics, three atherosclerotic rabbits and two healthy controls were injected with approximately 190 MBq of [^68Ga]Ga-DOTATATE. Venous blood was sampled at 1, 5, 10, 15, 20, 30, 60, 120, 180, 240 and 300 min after injection through the ear vein. Samples were weighed and gamma counted. Blood half-life data were fitted using a two-phase decay non-linear regression using GraphPad Prism v8.4.3 (Supplementary Table S1). To investigate the tracer blood distribution, blood samples were centrifuged at 2000 g for 15 min at 4 °C to determine the radioactivity concentration in the plasma and cellular fractions. To analyze [^68Ga]Ga-DOTATATE biodistribution, all rabbits were euthanized after the last imaging time-point using an injection of pentobarbital 100 mg/kg and exsanguination of the portal vein. Rabbits were extensively perfused with 1000 mL of saline. Following, tissues (blood, heart, aorta, liver, kidney, skeletal muscle, small and large intestine, fat, stomach, pancreas and bladder) were harvested, weighed and gamma counted.
# [3] = [^68Ga]Ga-DOTATATE distribution in blood fractions (plasma vs cells); type: in vivo, New Zealand White rabbits; settings: control (N = 2) and athero4mo (N = 3) rabbits
# Experimental: as §4
# [4] = In vivo PET/CT of cardiac inflammation in infarcted mice; settings: female, mouse, heart, iv, 5.55 MBq, total radioactivity, healthy C57Bl/6 mice, tracer circulated 60 min, median, N = 4, read-out: SUVmax heart of control animals
# Experimental: as §1, §2, §3
# [5] = C57Bl/6 mice 3 days after LAD ligation, N = 4 ([^64Cu]Cu-DOTATATE), N = 6 ([^18F]F-FDG)
compound,measurement,setting,value
"OC[C@H]1OC(O)[C@H]([18F])[C@@H](O)[C@@H]1O (some centres unmarked) [[^18F]F-FDG, [^18F]F-fluorodeoxyglucose]",SUVmax infarcted myocardium,[1]; [5],4.2
same,SUVmax remote (non-infarcted) myocardium,[1]; [5],2.1
same,SUVmax heart of control animals,"[1]; healthy C57Bl/6 mice, N = 4",3.4
"C[C@@H](O)[C@H](NC(=O)[C@@H]1CSSC[C@H](NC(=O)[C@@H](Cc2ccccc2)NC(=O)CN2CCN(CC(=O)O)CCN(CC(=O)O)CCN(CC(=O)O)CC2)C(=O)N[C@@H](Cc2ccc(O)cc2)C(=O)N[C@H](Cc2c[nH]c3ccccc23)C(=O)N[C@@H](CCCCN)C(=O)N[C@@H]([C@@H](C)O)C(=O)N1)C(=O)O [[^68Ga]Ga-DOTATATE, metal not drawn]",tissue uptake at 200 min,"[2]; abdominal aorta, iv, male athero4mo rabbits, N = 9, read-out: Tissue radioactivity, abdominal aorta",0.017 %ID/g
same,tissue uptake at 200 min,"[2]; abdominal aorta, iv, male control rabbits, N = 6, read-out: Tissue radioactivity, abdominal aorta",0.006 %ID/g
same,tissue uptake at 200 min,"[2]; adrenal gland, iv, male athero4mo rabbits, N = 9, read-out: Tissue radioactivity, adrenal gland",0.012 %ID/g
same,tissue uptake at 200 min,"[2]; adrenal gland, iv, male control rabbits, N = 6, read-out: Tissue radioactivity, adrenal gland",0.003 %ID/g
same,tissue uptake at 200 min,"[2]; bladder, intravenous, male athero4mo rabbits, N = 9, read-out: Tissue radioactivity, bladder",0.075 %ID/g
same,tissue uptake at 200 min,"[2]; bladder, intravenous, male control rabbits, N = 6, read-out: Tissue radioactivity, bladder",0.053 %ID/g
same,tissue uptake at 200 min,"[2]; bone marrow, intravenous, male athero4mo rabbits, N = 9, read-out: Tissue radioactivity, bone marrow",0.006 %ID/g
same,tissue uptake at 200 min,"[2]; bone marrow, intravenous, male control rabbits, N = 6, read-out: Tissue radioactivity, bone marrow",0.003 %ID/g
same,tissue uptake at 200 min,"[2]; fat, intravenous, male athero4mo rabbits, N = 9, read-out: Tissue radioactivity, fat",0.002 %ID/g
same,tissue uptake at 200 min,"[2]; heart, iv, male athero4mo rabbits, N = 9, read-out: Tissue radioactivity, heart",0.006 %ID/g
same,tissue uptake at 200 min,"[2]; heart, iv, male control rabbits, N = 6, read-out: Tissue radioactivity, heart",0.003 %ID/g
same,tissue uptake at 200 min,"[2]; kidneys, iv, male athero4mo rabbits, N = 9, read-out: Tissue radioactivity, kidneys",0.157 %ID/g
same,tissue uptake at 200 min,"[2]; kidneys, iv, male control rabbits, N = 6, read-out: Tissue radioactivity, kidneys",0.128 %ID/g
same,tissue uptake at 200 min,"[2]; large intestine, iv, male athero4mo rabbits, N = 9, read-out: Tissue radioactivity, large intestine",0.01 %ID/g
same,tissue uptake at 200 min,"[2]; large intestine, iv, male control rabbits, N = 6, read-out: Tissue radioactivity, large intestine",0.005 %ID/g
same,tissue uptake at 200 min,"[2]; liver, intravenous, male athero4mo rabbits, N = 9, read-out: Tissue radioactivity, liver",0.006 %ID/g
same,tissue uptake at 200 min,"[2]; lungs, iv, male athero4mo rabbits, N = 9, read-out: Tissue radioactivity, lungs",0.015 %ID/g
same,tissue uptake at 200 min,"[2]; lungs, iv, male control rabbits, N = 6, read-out: Tissue radioactivity, lungs",0.005 %ID/g
same,tissue uptake at 200 min,"[2]; lymph node, iv, male athero4mo rabbits, N = 9, read-out: Tissue radioactivity, lymph node",0.013 %ID/g
same,tissue uptake at 200 min,"[2]; lymph node, iv, male control rabbits, N = 6, read-out: Tissue radioactivity, lymph node",0.005 %ID/g
same,tissue uptake at 200 min,"[2]; muscle, iv, male athero4mo rabbits, N = 9, read-out: Tissue radioactivity, muscle",0.003 %ID/g
same,tissue uptake at 200 min,"[2]; muscle, iv, male control rabbits, N = 6, read-out: Tissue radioactivity, muscle",0.001 %ID/g
same,tissue uptake at 200 min,"[2]; pancreas, intravenous, male control rabbits, N = 6, read-out: Tissue radioactivity, pancreas",0.005 %ID/g
same,tissue uptake at 200 min,"[2]; small intestine, iv, male athero4mo rabbits, N = 9, read-out: Tissue radioactivity, small intestine",0.021 %ID/g
same,tissue uptake at 200 min,"[2]; small intestine, iv, male control rabbits, N = 6, read-out: Tissue radioactivity, small intestine",0.025 %ID/g
same,tissue uptake at 200 min,"[2]; spleen, intravenous, male athero4mo rabbits, N = 9, read-out: Tissue radioactivity, spleen",0.012 %ID/g
same,tissue uptake at 200 min,"[2]; spleen, intravenous, male control rabbits, N = 6, read-out: Tissue radioactivity, spleen",0.015 %ID/g
same,tissue uptake at 200 min,"[2]; stomach, intravenous, male athero4mo rabbits, N = 9, read-out: Tissue radioactivity, stomach",0.053 %ID/g
same,tissue uptake at 200 min,"[2]; thoracic aorta, iv, male athero4mo rabbits, N = 9, read-out: Tissue radioactivity, thoracic aorta",0.015 %ID/g
same,tissue uptake at 200 min,"[2]; thoracic aorta, iv, male control rabbits, N = 6, read-out: Tissue radioactivity, thoracic aorta",0.004 %ID/g
same,distribution between plasma and cells,[3],"detected in plasma, rather than cells"
"C[C@@H](O)[C@H](NC(=O)[C@@H]1CSSC[C@H](NC(=O)[C@@H](Cc2ccccc2)NC(=O)CN2CCN(CC(=O)O)CCN(CC(=O)O)CCN(CC(=O)O)CC2)C(=O)N[C@@H](Cc2ccc(O)cc2)C(=O)N[C@H](Cc2c[nH]c3ccccc23)C(=O)N[C@@H](CCCCN)C(=O)N[C@@H]([C@@H](C)O)C(=O)N1)C(=O)O [[^64Cu]Cu-DOTATATE, metal not drawn]",SUV at 1 h,[4],0.6 SUV
